The values below come from ChEMBL document CHEMBL4311972, “Discovery of a benzothiophene-flavonol halting miltefosine and antimonial drug resistance in Leishmania parasites through the application of medicinal chemistry, screening and genomics” (Eur J Med Chem, 2019).

Series [1] concerns Trypanosoma brucei. The series can be described thus: Antitrypanosomal activity against Trypanosoma brucei bloodstream form assessed as parasite growth inhibition incubated for 72 hrs by resazurin dye based assay. It is filed as functional, organism-based. To be noted: Trypanosoma brucei, 72 h; read-out: EC50. (In general: Resazurin is reduced to fluorescent resorufin, in cell work by metabolically active cells.)

Series [2] is described as follows: Cytotoxicity against human THP1 cells by MTT assay. It counts as cell-based, THP-1.
A short description of series [3]: Selectivity index, ratio of CC50 for human THP1 cells to EC50 for Trypanosoma brucei bloodstream form. The settings on record: read-out: Ratio CC50/EC50. It is filed as toxicity.
For series [4], the target named is hERG (KCNH2) (Homo sapiens, UniProt Q12809). The series can be described thus: Inhibition of human ERG at 10 uM incubated for 2 hrs by fluorescence polarization assay relative to control. In general terms: In fluorescence polarisation assays a small probe gives low polarisation when free and higher when bound to something large.
Chain of hERG (KCNH2) (Q12809 whole entry): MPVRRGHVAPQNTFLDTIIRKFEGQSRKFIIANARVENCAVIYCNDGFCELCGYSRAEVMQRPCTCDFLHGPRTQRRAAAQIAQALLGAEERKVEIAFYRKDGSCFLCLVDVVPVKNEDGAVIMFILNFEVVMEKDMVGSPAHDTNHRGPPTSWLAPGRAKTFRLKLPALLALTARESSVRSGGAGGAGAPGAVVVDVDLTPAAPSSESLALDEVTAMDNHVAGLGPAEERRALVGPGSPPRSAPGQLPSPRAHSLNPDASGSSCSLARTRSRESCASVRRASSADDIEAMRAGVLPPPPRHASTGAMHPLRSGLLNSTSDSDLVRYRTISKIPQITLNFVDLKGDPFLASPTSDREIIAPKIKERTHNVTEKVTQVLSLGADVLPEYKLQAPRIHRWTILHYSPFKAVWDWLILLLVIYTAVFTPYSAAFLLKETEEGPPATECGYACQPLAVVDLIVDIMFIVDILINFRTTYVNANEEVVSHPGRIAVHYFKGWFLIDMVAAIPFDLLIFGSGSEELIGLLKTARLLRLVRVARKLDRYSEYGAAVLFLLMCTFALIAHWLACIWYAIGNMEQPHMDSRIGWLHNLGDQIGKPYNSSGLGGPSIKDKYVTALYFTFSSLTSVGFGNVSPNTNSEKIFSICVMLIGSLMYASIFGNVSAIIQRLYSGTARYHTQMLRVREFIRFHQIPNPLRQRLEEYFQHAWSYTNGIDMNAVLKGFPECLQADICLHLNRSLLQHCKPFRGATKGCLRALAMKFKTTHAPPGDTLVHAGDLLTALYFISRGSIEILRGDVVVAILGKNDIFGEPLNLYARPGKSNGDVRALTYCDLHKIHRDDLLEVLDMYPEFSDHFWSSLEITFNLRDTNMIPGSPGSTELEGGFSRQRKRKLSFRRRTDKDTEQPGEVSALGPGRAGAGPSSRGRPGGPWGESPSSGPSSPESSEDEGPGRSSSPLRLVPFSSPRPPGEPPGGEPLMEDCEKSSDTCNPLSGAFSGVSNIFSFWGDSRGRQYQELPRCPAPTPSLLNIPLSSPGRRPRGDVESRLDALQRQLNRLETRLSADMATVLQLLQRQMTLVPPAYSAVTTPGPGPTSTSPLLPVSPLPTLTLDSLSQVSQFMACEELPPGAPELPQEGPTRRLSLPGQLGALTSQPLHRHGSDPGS
Series [5] addresses T1, CYP1A2 (Homo sapiens, UniProt P05177).
T1 sequence (P05177 whole entry): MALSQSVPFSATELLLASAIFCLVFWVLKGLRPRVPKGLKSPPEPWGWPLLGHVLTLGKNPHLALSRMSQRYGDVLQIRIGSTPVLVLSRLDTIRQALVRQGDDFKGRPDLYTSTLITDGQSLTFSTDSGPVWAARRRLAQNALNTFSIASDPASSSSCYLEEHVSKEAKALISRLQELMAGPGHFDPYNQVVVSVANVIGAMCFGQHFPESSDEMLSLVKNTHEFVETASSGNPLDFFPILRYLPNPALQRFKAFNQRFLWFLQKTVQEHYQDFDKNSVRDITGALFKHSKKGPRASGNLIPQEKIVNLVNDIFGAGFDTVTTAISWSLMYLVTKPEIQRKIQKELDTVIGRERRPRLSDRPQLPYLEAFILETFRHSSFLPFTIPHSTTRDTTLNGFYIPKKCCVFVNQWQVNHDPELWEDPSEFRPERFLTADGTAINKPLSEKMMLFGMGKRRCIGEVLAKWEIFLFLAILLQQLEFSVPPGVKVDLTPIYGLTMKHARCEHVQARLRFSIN
The series can be described thus: Inhibition of human microsomal CYP1A2 expressed in baculovirus infected insect cells at 10 uM using luciferin-1A2 as substrate preincubated with enzyme/substrate mixture for 30 mins followed by further incubation with NADPH for 30 mins by CYP450 luciferase Glo assay relative to control. It is filed as ADME. To be noted: probe luciferin-1A2.

For series [6], the target named is CYP2C9 (Homo sapiens, UniProt P11712). The series can be described thus: Inhibition of human microsomal CYP2C9 expressed in baculovirus infected insect cells at 10 uM using luciferin-H as substrate preincubated with enzyme/substrate mixture for 30 mins followed by further incubation with NADPH for 30 mins by CYP450 luciferase Glo assay relative to control. It is filed as ADME. The settings on record: probe luciferin-H.
Chain of CYP2C9 (P11712 whole entry): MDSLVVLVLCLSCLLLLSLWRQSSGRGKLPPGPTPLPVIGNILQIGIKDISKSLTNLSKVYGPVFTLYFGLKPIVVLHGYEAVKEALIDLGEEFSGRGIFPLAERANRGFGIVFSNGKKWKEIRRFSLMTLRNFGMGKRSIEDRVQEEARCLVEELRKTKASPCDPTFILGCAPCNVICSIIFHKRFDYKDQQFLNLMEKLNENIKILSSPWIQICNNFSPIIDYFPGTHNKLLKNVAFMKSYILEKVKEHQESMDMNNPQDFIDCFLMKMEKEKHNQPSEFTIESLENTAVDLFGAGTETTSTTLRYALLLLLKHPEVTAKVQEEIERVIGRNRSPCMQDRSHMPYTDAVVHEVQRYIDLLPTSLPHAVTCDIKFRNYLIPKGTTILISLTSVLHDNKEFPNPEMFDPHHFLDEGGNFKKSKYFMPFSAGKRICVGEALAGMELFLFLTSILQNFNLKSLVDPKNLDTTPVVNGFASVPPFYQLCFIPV

Series [7] addresses CYP2C19 (Homo sapiens, UniProt P33261). The series can be described thus: Inhibition of human microsomal CYP2C19 expressed in baculovirus infected insect cells at 10 uM using luciferin-H EGE as substrate preincubated with enzyme/substrate mixture for 30 mins followed by further incubation with NADPH for 30 mins by CYP450 luciferase Glo assay relative to control. It is filed as ADME. The settings on record: probe luciferin-H EGE.

Series [8] has as its target CYP2D6 (Homo sapiens, UniProt P10635). The series can be described thus: Inhibition of human microsomal CYP2D6 expressed in baculovirus infected insect cells at 10 uM using luciferin-ME as substrate preincubated with enzyme/substrate mixture for 30 mins followed by further incubation with NADPH for 30 mins by CYP450 luciferase Glo assay relative to control. It counts as ADME. The settings on record: probe luciferin-ME.

Series [9] deals with CYP3A4 (Homo sapiens, UniProt P08684). The series can be described thus: Inhibition of human microsomal CYP3A4 expressed in baculovirus infected insect cells at 10 uM using luciferin-IPA as substrate preincubated with enzyme/substrate mixture for 30 mins followed by further incubation with NADPH for 30 mins by CYP450 luciferase Glo assay relative to control. The settings on record: probe luciferin-IPA. It is filed as ADME.
Chain of CYP3A4 (P08684 whole entry): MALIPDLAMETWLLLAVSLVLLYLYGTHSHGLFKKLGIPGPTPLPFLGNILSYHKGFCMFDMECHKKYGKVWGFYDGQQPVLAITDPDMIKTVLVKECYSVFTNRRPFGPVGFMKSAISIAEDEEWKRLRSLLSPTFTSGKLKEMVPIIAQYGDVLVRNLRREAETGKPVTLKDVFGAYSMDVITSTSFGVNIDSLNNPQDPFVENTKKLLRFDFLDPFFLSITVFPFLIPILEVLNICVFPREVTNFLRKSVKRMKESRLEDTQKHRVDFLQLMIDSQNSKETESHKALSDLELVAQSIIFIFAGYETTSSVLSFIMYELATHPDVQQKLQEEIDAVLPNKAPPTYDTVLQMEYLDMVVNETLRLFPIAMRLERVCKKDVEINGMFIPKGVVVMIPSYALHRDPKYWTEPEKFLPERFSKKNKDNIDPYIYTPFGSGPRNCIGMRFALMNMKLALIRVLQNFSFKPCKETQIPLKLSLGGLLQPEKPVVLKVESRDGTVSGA

Series [10] is described as follows: Cytotoxicity against human A549 cells assessed as cell growth at […] incubated for 48 hrs by Celltiter-Glo luminescence assay relative to control. It is filed as cell-based. Further details: dose or concentration left out as unconfirmed. The settings on record: read-out: Activity.
Series [11] concerns 786-0. The series can be described thus: Mitochondrial toxicity in human 786-0 cells at 10 uM incubated with compound for 6 hrs followed by incubation with MitoTracker Red chloromethyl-X-rosamine dye for 45 mins by imaging analysis. It is filed as cell-based. To be noted: 786-0, 6 h.
In series [12] the test system is Leishmania infantum. The series can be described thus: Antileishmanial activity against luciferase expressing intracellular amastigote stage of Leishmania infantum infected in human THP1 cells assessed as parasite growth inhibition measured after 48 to 72 hrs by steady-glo luciferase assay. It counts as functional, organism-based. To be noted: Leishmania infantum, THP-1; read-out: EC50.

Series [13] is described as follows: Selectivity index, ratio of CC50 for human THP1 cells to EC50 for luciferase expressing intracellular amastigote stage of Leishmania infantum infected in human THP1 cells. It counts as toxicity, cell-based. The settings on record: read-out: Ratio CC50/EC50.

Chain of CYP2C19 (P33261 whole entry): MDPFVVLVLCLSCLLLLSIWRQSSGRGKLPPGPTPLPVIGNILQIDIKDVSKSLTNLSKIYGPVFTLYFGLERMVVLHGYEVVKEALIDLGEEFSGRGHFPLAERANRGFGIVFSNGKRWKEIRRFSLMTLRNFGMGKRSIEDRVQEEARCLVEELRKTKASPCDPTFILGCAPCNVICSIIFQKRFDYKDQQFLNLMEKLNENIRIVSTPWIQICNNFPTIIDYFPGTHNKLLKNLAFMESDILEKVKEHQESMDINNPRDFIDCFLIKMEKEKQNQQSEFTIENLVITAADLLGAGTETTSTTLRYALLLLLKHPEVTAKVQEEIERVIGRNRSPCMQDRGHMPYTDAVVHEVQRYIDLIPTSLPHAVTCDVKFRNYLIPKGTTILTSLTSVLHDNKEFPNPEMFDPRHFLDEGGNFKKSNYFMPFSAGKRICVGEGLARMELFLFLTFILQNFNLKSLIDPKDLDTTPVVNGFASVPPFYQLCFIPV
Chain of CYP2D6 (P10635 whole entry): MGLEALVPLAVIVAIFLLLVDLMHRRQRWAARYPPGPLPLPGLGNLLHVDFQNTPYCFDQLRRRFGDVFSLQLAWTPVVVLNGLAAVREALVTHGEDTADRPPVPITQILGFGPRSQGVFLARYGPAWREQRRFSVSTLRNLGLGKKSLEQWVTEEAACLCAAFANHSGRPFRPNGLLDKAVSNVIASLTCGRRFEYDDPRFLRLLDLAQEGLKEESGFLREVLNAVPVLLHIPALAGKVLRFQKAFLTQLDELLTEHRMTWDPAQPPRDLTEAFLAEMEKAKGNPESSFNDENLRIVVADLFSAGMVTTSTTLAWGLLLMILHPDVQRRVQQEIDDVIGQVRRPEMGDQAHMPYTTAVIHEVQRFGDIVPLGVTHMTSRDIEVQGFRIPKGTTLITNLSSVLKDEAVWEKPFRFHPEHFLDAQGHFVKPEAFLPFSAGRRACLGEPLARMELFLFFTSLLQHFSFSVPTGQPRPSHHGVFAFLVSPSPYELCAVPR

For orientation: EC50 means the concentration needed to bring the measured effect to its halfway point. In general, CC50 refers to the concentration that lowers cell viability or growth by half. For orientation: inhibition means the change of the read-out against control, counted positive when it falls. For the molecule `COc1ccc2oc(-c3cc(C)cs3)c(O)c(=O)c2c1`, the concentration giving a half-maximal response (EC50) in series [1] turned out to be 5.7 µM. Further, the half-maximal cytotoxic concentration (CC50) in series [2] lay in the range of 25 to 50 µM. Moreover, the selectivity ratio in series [3] was found to be 4. The inhibition at 2 h, 10 µM in series [4] turned out to be 6.55%. In addition, the inhibition at 0.5 h, 10 µM in series [5] is 94.8%; in series [6] it was 29.2%; in series [7] it was 20.9%; in series [8], 30.6%; in series [9], 4.51%. The viability at 48 h in [10] worked out at 98.8%. Further, the Activity in series [11] is recorded as -5.29%.
As for `CCCCC(=O)Oc1c(-c2csc3ccccc23)oc2ccc(OC)cc2c1=O`, the figures for the EC50 in series [12] and in series [1] were 2.4 µM and 1.3 µM, respectively. The CC50 in [2] is 12.5 to 25 µM. Moreover, in series [13], the selectivity ratio amounted to 5. For the same molecule, the inhibition at 2 h, 10 µM in series [4] is 1.12%. Further, the inhibition at 0.5 h, 10 µM in series [5] amounted to 83.3%; in [6], 48.3%; in [7] it was 33.9%; in series [8] it was 29.3%; in [9], 61.8%. The viability at 48 h in series [10] is 12.4%. Besides, the Activity in series [11] came to 0.75%.
For the molecule `O=c1c(O)c(-c2csc3ccccc23)oc2ccc(Br)cc12`, the EC50 was 2.7 µM in [12] and 1.5 µM in series [1]. Moreover, in series [2], the CC50 is 25 to 50 µM. The selectivity ratio in series [13] amounted to 9. In series [4], the inhibition at 2 h, 10 µM was -60.1%. The inhibition at 0.5 h, 10 µM in series [5] is 78%; in [6], 25.3%; in series [7], 24.3%; in series [8], 27.5%; in series [9] it was -6.12%. Moreover, the viability at 48 h in series [10] was determined as 119%. Moreover, in [11], the Activity was -22.7%.
On to `COc1cccc2oc(-c3cc(C)cs3)c(O)c(=O)c12`, for which, in series [1], the EC50 turned out to be 3.4 µM. For the same molecule, in series [2], the CC50 fell in the range of 12.5 to 25 µM. Besides, the selectivity ratio in series [3] came to 4. Also, in series [4], the inhibition at 2 h, 10 µM was -7.47%. The inhibition at 0.5 h, 10 µM amounted to 106% in [5]; 53.5% in series [6]; 19.2% in [7]; 21.2% in series [8]; 24.5% in series [9]. The viability at 48 h in [10] was determined as 25.3%. Besides, in series [11], the Activity is -7.63%.
Consider `O=c1c(O)c(-c2csc3ccccc23)oc2ccc(F)cc12`, for which the EC50 turned out to be 6 µM in series [12] and 1.5 µM in [1]. Moreover, the CC50 in series [2] is 25 to 50 µM. Further, the selectivity ratio in series [13] was determined as 4. Moreover, in [4], the inhibition at 2 h, 10 µM was -29.6%. Further, the inhibition at 0.5 h, 10 µM turned out to be 86.4% in [5]; 25.4% in series [6]; 26% in [7]; 16.8% in [8]; 11.5% in series [9]. Moreover, the viability at 48 h in [10] was 99.1%. In series [11], the Activity was -23.6%.
Consider `COc1ccc2oc(-c3csc4ccccc34)c(OC(C)=O)c(=O)c2c1`, for which the results for the EC50 in [12] and in series [1] were 2.1 µM and 1.3 µM, respectively. Moreover, the CC50 in series [2] fell in the range of 12.5 to 25 µM. Also, the selectivity ratio in [13] is 6. Also, the inhibition at 2 h, 10 µM in [4] was -30%. For the same molecule, the inhibition at 0.5 h, 10 µM in series [5] was 90.7%; in series [6], -229%; in [7], 69.6%; in series [8], 30.8%; in series [9], 42%. Besides, in [10], the viability at 48 h came to 47.3%. In series [11], the Activity is -27.27%.
For the molecule `COc1ccc2oc(-c3cccc(-c4ccc(OC)c(OC)c4)c3)c(O)c(=O)c2c1`, the EC50 in [1] is 3 µM. Besides, in series [2], the CC50 fell in the range of 25 to 50 µM. Moreover, the selectivity ratio in series [3] was determined as 8. In addition, in series [4], the inhibition at 2 h, 10 µM is -14.3%. The inhibition at 0.5 h, 10 µM in series [5] was determined as 83.1%; in [6], 40.1%; in series [7], 22%; in series [8], 40.6%; in series [9], 52.5%. In addition, the viability at 48 h in [10] stood at 19.5%. The Activity in series [11] is on record as -9.66%.
On to `COc1ccc2c(=O)c(O)c(-c3cc(C)cs3)oc2c1`, for which, in series [1], the EC50 came to 3 µM. The molecule further came in with a half-maximal cytotoxic concentration (CC50) in series [2] of 25 to 50 µM. Also, the selectivity ratio in series [3] is 8. Besides, the inhibition at 2 h, 10 µM in series [4] worked out at 5.93%. Moreover, the inhibition at 0.5 h, 10 µM stood at 103% in series [5]; 59.6% in series [6]; 77.9% in series [7]; 33.6% in [8]; 12.5% in [9]. Besides, in series [10], the viability at 48 h turned out to be 80.9%. The Activity in series [11] turned out to be 0.01%.
Consider `O=c1c(O)c(-c2csc3ccccc23)oc2ccc(Cl)cc12`, for which the EC50 is 2.7 µM in [12] and 2.1 µM in series [1]. In [2], this molecule gave a half-maximal cytotoxic concentration (CC50) of 12.5 to 25 µM. Also, the selectivity ratio in series [13] came out at 5. The inhibition at 2 h, 10 µM in series [4] is -14%. For the same molecule, the inhibition at 0.5 h, 10 µM in series [5] came out at 84.7%; in series [6], 28.6%; in [7], 12%; in series [8], 16.2%; in [9], 1.36%. For the same molecule, the viability at 48 h in series [10] came to 126%. In addition, in series [11], the Activity is reported as -21.98%.
